Assay results from patent US10988812B2, “Fusion genes associated with progressive prostate cancer” (UNIVERSITY OF PITTSBURGH - OF THE COMMONWEALTH SYSTEM OF …, priority 2013, dated 2021).
Read-outs that look alike come from different tables or passages of the source.

Columns and labels:
Assay type in all cases: cell-based, human
[1] = tested on: MAN2A1-FER transformed PC3 cells; assay: Cell death of PC3 cells transformed with pCDNA4-MAN2A1-FER-FLAG/pCDNA6
Protocol: FIG. 23. […] Prostate cancer cell line PC3 was transformed with pCDNA4-MAN2A1-FER-FLAG/pCDNA6. Expression of MAN2A1-FER was induced with 5 μg/mL tetracycline. Cells not treated with tetracycline nor any drug were used as background controls.
The second approach is to target EGFR activation by EGFR inhibitors. These include erlotinib, cetuximab, […], canertinib and […]. Many of these drugs were FDA approved and is widely used in a variety of human solid tumors. To interrogate the effectiveness of EGFR activation interruption in treating prostate cancer, we treated MAN2A1-FER transformed PC3 cells with canertinib.

[2] = tested on: PC3 cells containing TMEM135-CCDC67 breakpoint; assay: Ganciclovir killing of PC3 cells after genome editing that integrates HSV-1 TK at the TMEM135-CCDC67 breakpoint
Source text: (§1) FIG. 28A-B. Genetic therapy targeting at TMEM135-CCDC67 genome breakpoint.
(§2) The technique described above was applied to cells having the TMEM135-CCDC67 breakpoint. Since none of the fusion genes we identified so far was present in prostate cancer cell lines, we created a TMEM135-CCDC67 genome breakpoint that is identical to the prostate cancer sample we analyzed. The expression of the TMEM135-CCDC67 breakpoint was driven by a CMV promoter. Subsequently, we constructed a donor DNA that encompassed HSV-1 TK and the splicing sites of TMEM135 exon 14. When we co-transfected this donor DNA with a vector that expresses gRNA targeting at the TMEM135-CCDC67 breakpoint into PC3 cells containing this genome breakpoint, integration of TK into the genome was identified (FIG. 28A). […] This is remarkable in considering only 5-10% transfection efficiency using conventional liposome method. […] In light of this promising result, both TMEM135-CCDC67-TK cassette and NicKase-gRNATMEM135-CCDC67-BrkPt DNA are now in the process of packaging into Adenovirus. We will infect the recombinant virus into these cells in the future experiments. This will dramatically improve the delivery efficiency in the subsequent animal study and probably human.

PC3 cells = assay: as above; conditions: PC3 cells without TMEM135-CCDC67 breakpoint, same treatment
Source text: as §1, §2

## Cn1cnc2c(F)c(Nc3ccc(Br)cc3Cl)c(C(=O)NOCCO)cc21 [AZD6244]
[1]; MEK interception, data not shown
  differential killing effect (MAN2A1-FER expressing versus not): largely moderated and vanished

## C=CC(=O)Nc1cc2c(Nc3ccc(F)c(Cl)c3)ncnc2cc1OCCCN1CCOCC1 [Canertinib]
[1]; PC3 cells not expressing MAN2A1-FER (Tet-)
  cell death / killing of cells not expressing MAN2A1-FER: minimal
[1]; expression induced with 5 μg/mL tetracycline
  specific killing of MAN2A1-FER expressing cells (FIG. 23): specifically kills

## C[C@@H](Oc1cc(-c2cnn(C3CCNCC3)c2)cnc1N)c1c(Cl)ccc(F)c1Cl [Crisotinib]
[1]
  cell death: 31%
  cell death / killing of cells not expressing MAN2A1-FER: hardly killed
  lowering of cancer killing EC50 by expression of MAN2A1-FER: ~100 fold
  specific killing of MAN2A1-FER expressing cells (FIG. 23): specifically kills

## Nc1nc(O)c2ncn(COC(CO)CO)c2n1 [ganciclovir]
[2]
  specific killing of TMEM135-CCDC67 breakpoint containing PC3 cells (FIG. 28B): specific killing
PC3 cells
  cell death: minimal cell death
